What was measured:
[1] = test system: ADK-S cells; assay: 5-methylcytosine (5-mC) ELISA of genomic DNA from treated ADK-S cells; format: cell-based; conditions: for DNA methylation levels in ADK-S cells compared to vehicle-treated ADK-S cells: compound at its IC50, 24 hours after treatment, n=4-9
Method: 100 ng of purified genomic DNA was run on a 5-methylcytosine (5-mC) ELISA (Zymo Research Corp.) to quantify 5-methylcytosine.
FIG. 8 is a pair of bar graphs plotting the amount of 5-methylcytosine detected in genomic DNA isolated from the ADK-null cell line (Panel A) and the ADK-S cell line (Panel B) of FIG. 3, in the absence or presence of various ADK inhibitors, with each amount normalized with respect to the amount detected for vehicle-treated ADK-null cells. ADK-null and ADK-S cells identify off target effects of ADK inhibitors on DNA methylation levels. […] The IC50 for each ADK inhibitor was selected as the treatment dose. Total genomic DNA was isolated 24 hours after treatment, and 100 ng of purified DNA was run on a 5-methylcytosine (5-mC) ELISA (Zymo Research Corp) to determine the amount of 5-methylcytosine. […] Data are represented as the mean±SEM (n=4-9). Statistical analysis is a One-way ANOVA followed by uncorrected Fisher's LSD post hoc test.
FIG. 9 is a pair of bar graphs plotting the amount of 5-methylcytosine detected in genomic DNA isolated from the ADK-L cell line (Panel A) and the ADK-S cell line (Panel B) of FIG. 3, in the absence or presence of carbamazepine, with vehicle-treated ADK-null cells as a control. […] The IC50 of CBZ was selected as the treatment dose. Total genomic DNA was isolated 24 hours after treatment, and 100 ng of purified DNA was run on a 5-methylcytosine (5-mC) ELISA (Zymo Research Corp) to determine the amount of 5-methylcytosine. […] Data are represented as the mean±SEM (n=8-9). Statistical analysis is a One-way ANOVA for Panel A (F(2,23)=5.67, p=0.0099) followed by uncorrected Fisher's LSD post hoc test and Kruskal-Wallis test for Panel B (Kruskal-Wallis statistic=1.11, p=0.57).

[2] = test system: ADK-L cells; assay: 5-methylcytosine (5-mC) ELISA of genomic DNA from treated ADK-L cells; format: cell-based; conditions: compound at its IC50, genomic DNA isolated 24 hours after treatment, 100 ng DNA, n=8-9
Method: The IC50 for each ADK inhibitor was selected as the treatment dose. Total genomic DNA was isolated 24 hours after treatment and 100 ng of purified DNA was run on a 5-methylcytosine (5-mC) ELISA (Zymo Research Corp.) to quantify 5-methylcytosine. […] Data are represented as the mean±SEM (n=8-9). Statistical analysis is a One-way ANOVA (F(4,37)=2.95, p=0.033) followed by uncorrected Fisher's LSD post hoc test.
The IC50 of CBZ was selected as the treatment dose. Total genomic DNA was isolated 24 hours after treatment, and 100 ng of purified DNA was run on a 5-methylcytosine (5-mC) ELISA (Zymo Research Corp) to determine the amount of 5-methylcytosine. […] Data are represented as the mean±SEM (n=8-9). Statistical analysis is a One-way ANOVA for Panel A (F(2,23)=5.67, p=0.0099) followed by uncorrected Fisher's LSD post hoc test and Kruskal-Wallis test for Panel B (Kruskal-Wallis statistic=1.11, p=0.57).

[3] = molecular target: ADK (Homo sapiens, UniProt P55263); conditions: cited from earlier work; for IC50: used as treatment dose, read-out: IC50 of ADK inhibitor
Chain of ADK (P55263 whole entry, species assumed): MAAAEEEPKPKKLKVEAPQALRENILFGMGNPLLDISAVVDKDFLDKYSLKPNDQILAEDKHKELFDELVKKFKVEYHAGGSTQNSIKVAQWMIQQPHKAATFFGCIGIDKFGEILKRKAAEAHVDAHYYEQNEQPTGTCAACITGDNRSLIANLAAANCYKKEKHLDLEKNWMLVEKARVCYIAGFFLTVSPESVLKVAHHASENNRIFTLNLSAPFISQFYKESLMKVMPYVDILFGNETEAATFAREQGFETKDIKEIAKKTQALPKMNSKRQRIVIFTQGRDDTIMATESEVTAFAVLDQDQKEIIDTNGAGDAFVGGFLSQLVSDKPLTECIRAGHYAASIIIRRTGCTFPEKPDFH

Structure (SMILES)	DNA methylation levels in ADK-S cells compared to vehicle-treated ADK-S cells [1]	DNA methylation (5-methylcytosine) in ADK-L cells versus vehicle alone [2]	IC50 [3]	DNA methylation levels in CBZ-treated ADK-S cells compared to ADK-null cells ([1]; CBZ 24.5 nM, 24 hours after treatment, n=8-9, Kruskal-Wallis p=0.57)	Interaction with ADK [3]
Nc1ncnc2c1c(I)cn2[C@@H]1C[C@H](N)[C@@H](O)[C@H]1O [A-134974]	significantly increased	Neither ABT-702 nor A-134974 alters DNA methylation	60 pM		
Nc1ncnc2nc(-c3ccc(N4CCOCC4)nc3)cc(-c3cccc(Br)c3)c12 [ABT-702]		Neither ABT-702 nor A-134974 alters DNA methylation	1700 pM		
NC(=O)N1c2ccccc2C=Cc2ccccc21 [CBZ, Carbamazepine]		does not decrease DNA methylation		not significantly different	does not interact with ADK
Nc1ncnc2c1c(I)cn2[C@@H]1O[C@H](CO)[C@@H](O)[C@H]1O [5-ITU, 5-iodotubercidin]	significantly increased	significantly decreases DNA methylation			

From patent publication US20170219562A1, “EPIGENETIC COMPOUND SCREENING PLATFORM” (Legacy Emanuel Hospital & Health Center, priority 2016, published 2017)
